Consider one compound from US20190111055A1, “USE OF PHARMACEUTICAL COMPOSITION FOR THE TREATMENT OF SKIN ERYTHEMA IN POIKILODERMAS” (priority 2016, published 2019).

The conditions of data set [1]: clinical studies for acute erythema or diseases such as rosacea; cited from earlier work.
Data set [2] has as its system skin lesions of Poikiloderma of Civatte. From the text:
FIG. 1 represents the delimited area of the patient's skin to be treated with a composition described in this document, containing an alpha-adrenergic agonist, namely brimonidine gel 0.33%, prior to applying the medicine.
FIG. 2 represents the area of the patient's skin to be treated with the composition mentioned above, immediately after applying the medicine.
Drawing 1 represents the area selected and marked with white pencil for applying a product containing the alpha-adrenergic agonist brimonidine at 0.33% on skin lesions of Poikiloderma of Civatte; this drawing represents the area prior to application. Drawing 2 represents the moment immediately after applying the composition, which was restricted to the small area marked on the skin of the patient.

As for `Brc1c(NC2=NCCN2)ccc2nccnc12` [brimonidine], the “adverse events (most common: erythema, redness, burning sensation, contact dermatitis)” value in data set [1] was “less than or equal to 1%”. In addition, in data set [2] (brimonidine at 0.33%, topical, marked skin area, 40 minutes after applying), the “color of the skin affected by Poikiloderma of Civatte” value is on record as “effective improvement in the color of the skin”. Besides, the “redness of the Poikiloderma of Civatte erythema” value in data set [2] (topical application of the product) is reported as “visibly improves the redness”.
